Assay results taken from patent US12459974B2, “Bicyclic peptide ligands specific for Nectin-4” (priority 2018, dated 2025).
*1 amine or outer side, *2 acyl side, *3 side chain or, on linkers, in order; H or OH if unused. Where a SMILES comes first, the peptide text is derived from it. Bridges are numbered along the chain shown (N, C = ends). Roman numbers before positions name the chains, in order. [ ]: non-standard residue; d: D form. The star is where a group is joined. ξ: configuration not given here. TATA = O=C(CC[*:1])N1CN(C(=O)CC[*:2])CN(C(=O)CC[*:3])C1; Dolaproine = CO[C@@H]([C@@H]1CCCN1)[C@@H](C)C(=O)O; X1 = CC[C@H](C)C(C(CC(=O)[*:2])OC)N(C)[*:1]; 1Nal = N[C@@H](Cc1cccc2ccccc12)C(=O)O; X3 = O=C(CCCC(=O)[*:2])NCCC(=O)[*:1]; PABC = O=C(OCc1ccc(N[*:1])cc1)[*:2]; Hyp = O=C(O)[C@@H]1C[C@@H](O)CN1; hArg = N=C(N)NCCCC[C@H](N)C(=O)O; Cit = NC(=O)NCCC[C@H](N)C(=O)O; X2 = CC(N*)[C@@H](O)c1ccccc1; ξNMeV = CNC(C(=O)O)C(C)C; ξV = CC(C)C(N)C(=O)O; Sar = CNCC(=O)O

How the values were obtained:
[1] = test system: MDA-MB-468 xenograft; test: Example 9.4: in vivo efficacy in MDA-MB-468 xenograft in Balb/c nude mice; conditions: for TGI / Tumor volume (TV) / T/C: day 21; for T/C: treated/control group average tumor volume; for Tumor volume trace over time (Day 23 to day 42): dosing suspended from day 21
Method: The major endpoint was to see if the tumor growth could be delayed or mice could be cured. Tumor volume was measured three times weekly in two dimensions using a caliper, and the volume was expressed in mm^3 using the formula: V=0.5 a×b^2 where a and b are the long and short diameters of the tumor, respectively. The tumor size was then used for calculations of T/C value. The T/C value (in percent) is an indication of antitumor effectiveness; T and C are the mean volumes of the treated and control groups, respectively, on a given day. TGI was calculated for each group using the formula: TGI (%)=[1−(Ti−T0)/(Vi−V0)]×100; Ti is the average tumor volume of a treatment group on a given day, T0 is the average tumor volume of the treatment group on the day of treatment start, Vi is the average tumor volume of the vehicle control group on the same day with Ti, and V0 is the average tumor volume of the vehicle group on the day of treatment start.
A one-way ANOVA was performed to compare tumor volume among groups, and when a significant F-statistics (a ratio of treatment variance to the error variance) was obtained, comparisons between groups were carried out with Games-Howell test. All data were analyzed using GraphPad Prism 5.0. P<0.05 was considered to be statistically significant.
• Species: Mus Musculus • Strain: Balb/c nude • Age: 6-8 weeks • Sex: female • Body weight: 18-22 g • Number of animals: 41 mice plus spare 3.1.2.
The tumor cells were maintained in Leibovitz's L-15 medium supplemented with 10% heat inactivated fetal bovine serum at 37° C. in an atmosphere of 5% CO2 in air. The tumor cells were routinely subcultured twice weekly. The cells growing in an exponential growth phase were harvested and counted for tumor inoculation.
41 animals were randomized when the average tumor volume reached 196 mm^3.

[2] = test system: LU-01-0007 PDX; test: Example 12: in vivo efficacy in LU-01-0007 PDX model of lung cancer; parameters: species or system Mus Musculus
Method: Animals were checked daily for any effects of tumor growth and treatments on normal behavior such as mobility, food and water consumption (by looking only), body weight gain/loss, eye/hair matting and any other abnormal effect as stated in the protocol. Death and observed clinical signs were recorded on the basis of the numbers of animals within each subset.

[3] = target: T1, human Nectin-4 (Homo sapiens, UniProt Q96NY8); test: Nectin-4 Biacore SPR binding assay
T1 sequence (Q96NY8 32-349): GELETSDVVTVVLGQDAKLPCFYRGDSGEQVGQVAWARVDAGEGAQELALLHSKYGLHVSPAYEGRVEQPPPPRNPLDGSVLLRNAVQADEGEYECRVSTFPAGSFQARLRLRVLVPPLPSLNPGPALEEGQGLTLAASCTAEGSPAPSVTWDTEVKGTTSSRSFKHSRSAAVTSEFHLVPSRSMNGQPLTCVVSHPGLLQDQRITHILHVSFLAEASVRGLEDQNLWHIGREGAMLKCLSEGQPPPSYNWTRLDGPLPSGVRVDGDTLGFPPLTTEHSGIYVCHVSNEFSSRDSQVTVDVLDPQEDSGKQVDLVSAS
Method: Biacore experiments were performed to determine ka (M^−1 s^−1), kd (s^−1), KD (nM) values of monomeric peptides binding to human Necin-4 protein (obtained from Charles River).
Human Nectin-4 (residues Gly32-Ser349; NCBI RefSeq: NP_112178.2) with a gp67 signal sequence and C-terminal FLAG tag was cloned into pFastbac-1 and baculovirus made using standard Bac-to-Bac™ protocols (Life Technologies). Sf21 cells at 1×10^6 ml^−1 in Excell-420 medium (Sigma) at 27° C. were infected at an MOI of 2 with a P1 virus stock and the supernatant harvested at 72 hours. […] The protein was eluted with 100 μg/ml FLAG peptide. The eluted protein was concentrated to 2 ml and loaded onto an S-200 Superdex column (GE Healthcare) in PBS at 1 ml/min. 2 ml fractions were collected and the fractions containing Nectin-4 protein were concentrated to 16 mg/ml.
The protein was extensively desalted to remove uncoupled biotin using spin columns into PBS.
For analysis of peptide binding, a Biacore 3000 instrument was used utilising a CM5 chip (GE Healthcare). Streptavidin was immobilized on the chip using standard amine-coupling chemistry at 25° C. with HBS-N (10 mM HEPES, 0.15 M NaCl, pH 7.4) as the running buffer. Briefly, the carboxymethyl dextran surface was activated with a 7 minute injection of a 1:1 ratio of 0.4 M 1-ethyl-3-(3-dimethylaminopropyl) carbodiimide hydrochloride (EDC)/0.1 M N-hydroxy succinimide (NHS) at a flow rate of 10 μl/min. For capture of streptavidin, the protein was diluted to 0.2 mg/ml in 10 mM sodium acetate (pH 4.5) and captured by injecting 120 μl of streptavidin onto the activated chip surface. Residual activated groups were blocked with a 7 minute injection of 1 M ethanolamine (pH 8.5) and biotinylated Nectin-4 captured to a level of 1,200-1,800 RU. Buffer was changed to PBS/0.05% Tween 20 and a dilution series of the peptides was prepared in this buffer with a final DMSO concentration of 0.5%. The top peptide concentration was 100 nM with 6 further 2-fold dilutions. The SPR analysis was run at 25° C. at a flow rate of 50 μl/min with 60 seconds association and dissociation between 400 and 1,200 seconds depending upon the individual peptide. Data were corrected for DMSO excluded volume effects. All data were double-referenced for blank injections and reference surface using standard processing procedures and data processing and kinetic fitting were performed using Scrubber software, version 2.0c (BioLogic Software). Data were fitted using simple 1:1 binding model allowing for mass transport effects where appropriate.

[4] = test system: A549 xenograft; test: Example 9.1: in vivo efficacy in A549 xenograft in Balb/c nude mice; parameters: species or system Mus Musculus; conditions: for Tumor volume trace over time: iv; for T/C: treated group average tumor volume / control group; for Tumor volume: Mean ± SEM
[5] = test system: HCT116 xenograft; test: Example 9.2: in vivo efficacy in HCT116 xenograft in Balb/c nude mice; parameters: species or system Mus Musculus; conditions: day 14
[6] = 3 mpk, biw, day 14 after the start of treatment
[7] = 3 mpk, qw, day 14 after the start of treatment
[8] = 5 mpk, qw, day 14 after the start of treatment

How did the TGI ([1]; 3 mg/kg biw) turn out when CC[C@H](C)C(C(CC(=O)N1CCC[C@H]1[C@H](OC)[C@@H](C)C(=O)NC(C)[C@@H](O)c1ccccc1)OC)N(C)C(=O)[C@@H](NC(=O)C(C(C)C)N(C)C(=O)OCc1ccc(NC(=O)[C@H](CCCNC(N)=O)NC(=O)C(NC(=O)CCCC(=O)NCCC(=O)N(C)CC(=O)N(C)CC(=O)N(C)CC(=O)N(C)CC(=O)N(C)CC(=O)N(C)CC(=O)N(C)CC(=O)N(C)CC(=O)N(C)CC(=O)N(C)CC(=O)N[C@H]2CSCCC(=O)N3CN4CN(C3)C(=O)CCSC[C@H](NC(=O)[C@@H](CC(=O)O)NC(=O)[C@H](Cc3cccc5ccccc35)NC(=O)[C@@H]3CCCN3C2=O)C(=O)N[C@@H](CCSC)C(=O)N[C@@H](CCCCNC(=N)N)C(=O)N[C@@H](CC(=O)O)C(=O)N[C@@H](Cc2c[nH]c3ccccc23)C(=O)N[C@@H](CO)C(=O)N[C@@H]([C@@H](C)O)C(=O)N2CCC[C@H]2C(=O)N2C[C@H](O)C[C@H]2C(=O)N[C@@H](Cc2c[nH]c3ccccc23)C(=O)N[C@H](C(N)=O)CSCCC4=O)C(C)C)cc1)C(C)C (stereo partly drawn) [BCY8245, MMAE-PABC-Cit-Val-Glutaryl-BCY8234] (I: [Sar][Sar][Sar][Sar][Sar][Sar][Sar][Sar][Sar][Sar]CP[1Nal][dD]CM[hArg]DWSTP[Hyp]WC-NH2 / II: [ξV][Cit][PABC][ξNMeV]V[X1][Dolaproine]-X2; linker I:11-I:15-I:25 via TATA; linker I:N-II:N via X3) was run?
The TGI was 169.8%.

And the “Tumor volume (TV)” value ([1]; 3 mg/kg biw)?
The value was 22 mm^3.

And the TGI ([1]; 3 mg/kg qw)?
Its TGI is 144.2%.

What about the “Tumor volume (TV)” value ([1]; 3 mg/kg qw) of the same molecule?
Its value is 85 mm^3.

What about the TGI ([1]; 5 mg/kg qw) of the same molecule?
Its TGI is 168.4%.

And the “Tumor volume (TV)” value ([1]; 5 mg/kg qw)?
The value was 29 mm^3.

And the TGI ([1]; 3 mpk, biw, iv)?
Its TGI is 169.8%.

What about the T/C ([1]; 3 mpk, biw, iv) of the same molecule?
Its T/C is 4.9%.

And the TGI ([1]; 3 mpk, qw, iv)?
Its TGI is 144.2%.

And the T/C ([1]; 3 mpk, qw, iv)?
Its T/C is 18.9%.

What about the “Tumor volume trace over time (Day 23 to day 42)” value ([1]; 5 mpk, qw, iv, day 23 after the start of treatment) of the same molecule?
The value was 35 ± 5 mm^3.

And the “Tumor volume trace over time (Day 23 to day 42)” value ([1]; 5 mpk, qw, iv, day 25 after the start of treatment)?
The value was 48 ± 5 mm^3.

And the “Tumor volume trace over time (Day 23 to day 42)” value ([1]; 5 mpk, qw, iv, day 28 after the start of treatment)?
Its value is 37 ± 7 mm^3.

And the “Tumor volume trace over time (Day 23 to day 42)” value ([1]; 5 mpk, qw, iv, day 32 after the start of treatment)?
Its value is 28 ± 6 mm^3.

And the “Tumor volume trace over time (Day 23 to day 42)” value ([1]; 5 mpk, qw, iv, day 35 after the start of treatment)?
The value was 24 ± 4 mm^3.

And the “Tumor volume trace over time (Day 23 to day 42)” value ([1]; 5 mpk, qw, iv, day 39 after the start of treatment)?
The value was 28 ± 6 mm^3.

And the “Tumor volume trace over time (Day 23 to day 42)” value ([1]; 5 mpk, qw, iv, day 42 after the start of treatment)?
Its value is 26 ± 6 mm^3.

What about the TGI ([1]; 5 mpk, qw, iv) of the same molecule?
Its TGI is 168.4%.

What about the T/C ([1]; 5 mpk, qw, iv) of the same molecule?
The T/C was 6.6%.

And the “tumor response (in words)” value ([1]; mouse, in vivo)?
The value was “causes regression of the tumor”.

And the “efficacy (in words)” value ([2]; 1 mg/kg qw)?
The value was “stable disease”.

And the “tumor regrowth (in words)” value ([2]; 3 mg/kg, after dosing ceased, out to 126 days post study start)?
Its value is “no tumor regrowth”.

What about the “efficacy (in words)” value ([2]; 3 mg/kg, dosing maintained out to day 56) of the same molecule?
Its value is “full regression”.

What about the “binding to human Nectin-4 in the SPR binding assay (in words)” value [3] of the same molecule?
The value was “excellent binding”.

What about the Kd ([3]; read-out: Human SPR Kd, bicyclic drug conjugates (Table 4)) of the same molecule?
The Kd was 5.12 nM.

What about the TGI ([4]; 3 mg/kg biw, day 14) of the same molecule?
The TGI was 90.8%.

And the “Tumor volume (TV)” value ([4]; 3 mg/kg biw, day 14)?
Its value is 194 mm^3.

What about the TGI ([4]; 3 mg/kg qw, day 14) of the same molecule?
Its TGI is 51.4%.

What about the “Tumor volume (TV)” value ([4]; 3 mg/kg qw, day 14) of the same molecule?
Its value is 356 mm^3.

What about the TGI ([4]; 5 mg/kg qw, day 14) of the same molecule?
Its TGI is 82.6%.

What about the “Tumor volume (TV)” value ([4]; 5 mg/kg qw, day 14) of the same molecule?
Its value is 228 mm^3.

And the “Tumor volume trace over time” value ([4]; 3 mpk, biw, day 0 after the start of treatment)?
Its value is 157 ± 14.

And the “Tumor volume trace over time” value ([4]; 3 mpk, biw, day 2 after the start of treatment)?
Its value is 183 ± 27.

What about the “Tumor volume trace over time” value ([4]; 3 mpk, biw, day 5 after the start of treatment) of the same molecule?
Its value is 158 ± 16.

And the “Tumor volume trace over time” value ([4]; 3 mpk, biw, day 7 after the start of treatment)?
The value was 184 ± 6.

What about the “Tumor volume trace over time” value ([4]; 3 mpk, biw, day 9 after the start of treatment) of the same molecule?
Its value is 182 ± 8.

And the “Tumor volume trace over time” value ([4]; 3 mpk, biw, day 12 after the start of treatment)?
Its value is 190 ± 15.

What about the “Tumor volume trace over time” value [4, 6] of the same molecule?
Its value is 194 ± 27.

And the T/C ([4]; 3 mpk, biw, day 14)?
The T/C was 34.2%.

What about the TGI [4, 6] of the same molecule?
Its TGI is 90.8%.

What about the “Tumor volume” value [4, 6] of the same molecule?
Its value is 194 ± 27 mm^3.

And the “Tumor volume trace over time” value ([4]; 3 mpk, qw, day 0 after the start of treatment, mean ± SEM)?
The value was 157 ± 10.

What about the “Tumor volume trace over time” value ([4]; 3 mpk, qw, day 2 after the start of treatment) of the same molecule?
Its value is 208 ± 15.

And the “Tumor volume trace over time” value ([4]; 3 mpk, qw, day 5 after the start of treatment)?
Its value is 197 ± 25.

And the “Tumor volume trace over time” value ([4]; 3 mpk, qw, day 7 after the start of treatment)?
Its value is 257 ± 40.

And the “Tumor volume trace over time” value ([4]; 3 mpk, qw, day 9 after the start of treatment)?
Its value is 293 ± 41.

What about the “Tumor volume trace over time” value ([4]; 3 mpk, qw, day 12 after the start of treatment) of the same molecule?
The value was 341 ± 54.

What about the “Tumor volume trace over time” value [4, 7] of the same molecule?
The value was 356 ± 53.

And the T/C ([4]; 3 mpk, qw, day 14)?
The T/C was 62.8%.

And the TGI [4, 7]?
The TGI was 51.4%.

What about the “Tumor volume” value [4, 7] of the same molecule?
The value was 356 ± 53 mm^3.

And the “Tumor volume trace over time” value ([4]; 5 mpk, qw, day 0 after the start of treatment)?
The value was 157 ± 14.

And the “Tumor volume trace over time” value ([4]; 5 mpk, qw, day 2 after the start of treatment)?
Its value is 179 ± 22.

And the “Tumor volume trace over time” value ([4]; 5 mpk, qw, day 5 after the start of treatment)?
The value was 147 ± 10.

What about the “Tumor volume trace over time” value ([4]; 5 mpk, qw, day 7 after the start of treatment) of the same molecule?
The value was 172 ± 23.

What about the “Tumor volume trace over time” value ([4]; 5 mpk, qw, day 9 after the start of treatment) of the same molecule?
The value was 173 ± 24.

What about the “Tumor volume trace over time” value ([4]; 5 mpk, qw, day 12 after the start of treatment) of the same molecule?
The value was 204 ± 36.

And the “Tumor volume trace over time” value [4, 8]?
The value was 228 ± 33.

And the T/C ([4]; 5 mpk, qw, day 14)?
Its T/C is 40.2%.

And the TGI [4, 8]?
The TGI was 82.6%.

And the “Tumor volume” value [4, 8]?
The value was 228 ± 33 mm^3.

What about the “bodyweight (in words)” value ([4]; all dose groups) of the same molecule?
The value was “maintained the bodyweight well”.

And the “tumor response (in words)” value ([4]; mouse, in vivo)?
Its value is “tumor growth is restrained by BCY8245 but the tumor does not undergo regression”.

And the TGI ([5]; 3 mg/kg biw)?
Its TGI is 94.9%.

And the “Tumor volume (TV)” value ([5]; 3 mg/kg biw)?
The value was 197 mm^3.

What about the TGI ([5]; 3 mg/kg qw) of the same molecule?
Its TGI is 57.1%.

What about the “Tumor volume (TV)” value ([5]; 3 mg/kg qw) of the same molecule?
The value was 425 mm^3.

And the TGI ([5]; 5 mg/kg qw)?
Its TGI is 105.2%.
